Source: US20090124610A1, “PHARMACEUTICAL COMPOUNDS” (priority 2006, published 2009)
pIC50: −log10 of the molar value. Counter-ions that a name gives are not always drawn.

These compounds were tested against T1, PKA catalytic domain (Homo sapiens, UniProt P17612) (assay: Measurement of PKA kinase inhibitory activity (IC50), 33P-ATP filter plate assay). Conditions: 1 nM enzyme, 40 μM ATP/γ33P-ATP, 5 μM substrate […], 20 minutes.
T1 construct: using the PKA catalytic domain from Upstate Biotechnology (#14-440); purchased Upstate Biotechnology 14-440
Assay type: biochemical
Description: Compounds of the invention can be tested for PK inhibitory activity using the PKA catalytic domain from Upstate Biotechnology (#14-440) and the 9 residue PKA specific peptide ([…]), also from Upstate Biotechnology (#12-257), as the substrate. A final concentration of 1 nM enzyme is used in a buffer that includes 20 mM MOPS pH 7.2, 40 μM ATP/γ^33P-ATP and 5 μM substrate. Compounds are added in dimethylsulphoxide (DMSO) solution to a final DMSO concentration of 2.5%. The reaction is allowed to proceed for 20 minutes before addition of excess orthophosphoric acid to quench activity. Unincorporated γ^33P-ATP is then separated from phosphorylated proteins on a Millipore MAPH filter plate. The plates are washed, scintillant is added and the plates are then subjected to counting on a Packard Topcount.
The % inhibition of the PKA activity is calculated and plotted in order to determine the concentration of test compound required to inhibit 50% of the […] activity (IC50).

Row | pIC50 | Structure (SMILES)
1 | > 6.00 | Clc1ccc(C2(c3ccc(-c4ncnc5ccsc45)cc3)CCNCC2)cc1 [Example 4, 4-{4-[4-(4-Chloro-phenyl)-piperidin-4-yl]-phenyl}-thieno[3,2-d]pyrimidine formate]
2 | > 6.00 | CNCC(c1ccc(Cl)cc1)c1ccc(-c2ncnc3ccsc23)cc1 (stereo not shown) [Example 1, [2-(4-Chloro-phenyl)-2-(4-thieno[3,2-d]-pyrimidin-4-yl-phenyl)-ethyl]-methyl-amine bis-trifluoroacetate]

Each compound was assayed against T2, PKB-PIF (Homo sapiens, UniProt P31751) (assay: Measurement of PKB kinase inhibitory activity (IC50), 33P-ATP filter plate assay). Conditions: 0.6 nM enzyme, 30 μM ATP/γ33P-ATP, 25 μM AKTide-2T substrate, 20 minutes.
T2 construct: PIF (fusion partner); made in house
T2 sequence (P31751 with tags, fused parts or gaps limits assumed): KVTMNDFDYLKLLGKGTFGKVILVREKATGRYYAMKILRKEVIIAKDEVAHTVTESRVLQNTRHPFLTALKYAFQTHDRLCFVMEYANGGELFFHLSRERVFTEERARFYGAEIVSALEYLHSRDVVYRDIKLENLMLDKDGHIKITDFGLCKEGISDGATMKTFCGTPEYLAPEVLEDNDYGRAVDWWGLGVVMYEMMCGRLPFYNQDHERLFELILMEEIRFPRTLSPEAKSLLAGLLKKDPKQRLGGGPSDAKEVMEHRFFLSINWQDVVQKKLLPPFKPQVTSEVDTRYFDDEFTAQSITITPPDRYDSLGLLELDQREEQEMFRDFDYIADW
Assay type: biochemical
Text: The inhibition of protein kinase B (PKB) activity by compounds can be determined determined essentially as described by Andjelkovic et al. (Mol. Cell. Biol. 19, 5061-5072 (1999)) but using a fusion protein described as PKB-PIF and described in full by Yang et al (Nature Structural Biology 9, 940-944 (2002)). The protein is purified and activated with PDK1 as described by Yang et al. The peptide AKTide-2T (H-A-R-K-R-E-R-T-Y-S-F-G-H-H-A-OH) obtained from Calbiochem (#123900) is used as a substrate. A final concentration of 0.6 nM enzyme is used in a buffer that includes 20 mM MOPS pH 7.2, 30 μM ATP/γ^33P-ATP and 25 μM substrate. Compounds are added in DMSO solution to a final DMSO concentration of 2.5%. The reaction is allowed to proceed for 20 minutes before addition of excess orthophosphoric acid to quench activity. The reaction mixture is transferred to a phosphocellulose filter plate where the peptide binds and the unused ATP is washed away. After washing, scintillant is added and the incorporated activity measured by scintillation counting.
The % inhibition of the PKB activity is calculated and plotted in order to determine the concentration of test compound required to inhibit 50% of the PKB activity (IC50).

Row | pIC50 | Structure (SMILES)
3 | > 6.00 | NC1(Cc2ccc(Cl)cc2)CCN(c2ncnc3ccsc23)CC1 [Example 7, 4-(4-Chlorobenzyl)-1-thieno[3,2-d]pyrimidin-4-ylpiperidin-4-ylamine]
4 | > 6.00 | Clc1ccc(C2(c3ccc(-c4ncnc5ccsc45)cc3)CCNCC2)cc1 [Example 4, 4-{4-[4-(4-Chloro-phenyl)-piperidin-4-yl]-phenyl}-thieno[3,2-d]pyrimidine formate]
5 | > 6.00 | NC(c1ccc(Cl)cc1)C1CCN(c2ncnc3ccsc23)CC1 (stereo not shown) [Example 8, C-(4-Chlorophenyl)-C-(1-thieno[3,2-d]pyrimidin-4-ylpiperidin-4-yl)methylamine]
6 | > 6.00 | NCCC(c1ccc(Cl)cc1)c1ccc(-c2ncnc3ccsc23)cc1 (stereo not shown) [Example 2, 3-(4-Chloro-phenyl)-3-(4-thieno[3,2-d]pyrimidin-4-yl-phenyl)-propylamine]

The next lines start with the compound.

Row | Structure (SMILES) | pIC50
7 | NCC(c1ccc(Cl)cc1)N1CCN(c2ncnc3ccsc23)CC1 (stereo not shown) [Example 3, 2-(4-Chloro-phenyl)-2-(4-thieno[3,2-d]pyrimidin-4-yl-piperazin-1-yl)-ethylamine formate] | > 6.00
8 | NC1CCN(c2ccnc3c2C(=O)C(=O)N3)CC1 [Example 10, 4-(4-Amino-piperidin-1-yl)-1H-pyrrolo[2,3-b]pyridine-2,3-dione] | > 4.30
9 | NC1(C(=O)NCc2ccc(Cl)cc2)CCN(c2ncnc3ccsc23)CC1 [Example 5, 4-Amino-1-thieno[3,2-d]pyrimidin-4-yl-piperidine-4-carboxylic acid 4-chloro-benzylamide] | > 6.00
10 | NC1CCN(c2ncnc3sccc23)CC1 [Example 9, 1-Thieno[2,3-d]pyrimidin-4-ylpiperidin-4-ylamine] | > 4.30
11 | NC1(Cc2ccc(Cl)cc2)CCN(c2ccnc3c2OCC(=O)N3)CC1 [Example 11, 8-[4-Amino-4-(4-chloro-benzyl)-piperidin-1-yl]-4H-pyrido[3,2-b][1,4]oxazin-3-one] | > 5.30
12 | CNCC(c1ccc(Cl)cc1)c1ccc(-c2ncnc3ccsc23)cc1 (stereo not shown) [Example 1, [2-(4-Chloro-phenyl)-2-(4-thieno[3,2-d]-pyrimidin-4-yl-phenyl)-ethyl]-methyl-amine bis-trifluoroacetate] | > 6.00
13 | NC1CCN(c2ncnc3ccsc23)CC1 [Example 6, 1-Thieno[3,2-d]pyrimidin-4-ylpiperidin-4-ylamine] | > 5.30
